From patent US6933308B2 (Bristol-Myers Squibb Company, priority 2002, dated 2005) come the findings set out here.

One assay deals with KCNQ channels. The experiment in a line: Thallium flux assay for KCNQ channel openers. Type of assay: cell-based. The note with it: HEK-293 cells stably transfected with a KCNQ family member; for Min conc. response: minimal active concentration: lowest concentration giving signal >= 4 SD of negative controls; for EC50: thallium flux, 10 point concentration series.
In a further assay the target is T1, mKCNQ2 channels (Mus musculus, UniProt Q9Z351).
T1 construct: expressed in transfected cells
Put plainly: KCNQ whole-cell patch-clamp. Type of assay: cell-based. As for the experimental part: Examples 8 and 11 were verified in a patch-clamp assay measuring the effect of compounds on the current of KCNQ channels.
KCNQ Patch-clamp. Whole-cell patch-clamp recordings were made from an HEK 293 stable cell line expressing mKCNQ2 channels, maintained in culture for 1-2 days. Patch pipettes had initial resistances of 2.5-4 MΩ. Currents were recorded with an EPC-9 amplifier (HEKA, Lambrecht, Germany) controlled with software (Pulse, HEKA) run on a standard lab PC. Series resistance compensation was used during current recording, and set at 80%. The series resistance (R) and cell capacitance (C) were determined electronically by subtracting the capacitive currents at the onset and offset of a 5 mV voltage step. The cancellation of whole-cell capacitive transients was virtually complete in all cells. Analog current signals were low-pass filtered at 2.9 kHz using a four-pole Bessel filter −3 dB) and stored on a local network server computer at a sampling rate of 1.5 kHz. All recordings were performed at room temperature (20-22° C.). The pipette solution contained (mM):KCl, 150; CaCl2, 2.5; EGTA, 5; MgCl2, 1; HEPES, 10; pH to 7.3 with KOH, and Osmolality of 290-300 mOsm. The extracellular solution contained (mM): NaCl, 140; KCl, 2.5; CaCl2, 2.5; MgCl2, 1; glucose, 10; HEPES, 10; pH to 7.3 with NaOH, and Osmolality of […].
Concentration response data were generated by measuring the difference in the steady-state amplitude of current in the presence of compound at the end of a 600 ms voltage-clamp step from a holding potential of −80 mV. The concentration-response data were fitted with Hill-type equations: I=Imax/(1+EC50/[A]^nH), where I is the steady-state current at a given concentration of agonist [A]; and Imax, EC50 and nH are parameters estimated from the curve fit. In some cases the concentration-response data were fitted with equations consisting of the sum of two Hill-type components. Current-voltage (I/V) relationships for agonist-evoked currents were obtained by performing 600 ms voltage steps (−110 mV to +40 mV) in the absence and presence of agonist.
On the technique in general: In patch-clamp work, channel activity is measured electrically.

What is called EC50 is the concentration needed to bring the measured effect to its halfway point. A higher EC50 goes with a need for much substance.

Regarding `CCN(CC)CCc1nc(C(F)(F)F)c(C(=O)NC(C)c2cccc(OC(F)(F)F)c2)s1` (stereo not drawn) [Example 15], the Min conc. response in the assay on KCNQ channels was determined as 0.3 µM. The EC50 was 50 to 1000 nM in the assay with KCNQ channels and 3560 nM on mKCNQ2 channels (HEK 293 stable cell line expressing mKCNQ2, steady-state current at end of 600 ms step from holding potential -80 mV).

In the assay on KCNQ channels, `CC(NC(=O)c1sc(CCN2CCOCC2)nc1C(F)(F)F)c1cccc(-c2cccnc2)c1` (stereo not drawn) [Example 8] yielded a Min conc. response of 10 µM and an EC50 of 1000 to 20000 nM. In addition, at mKCNQ2 channels (HEK 293 cells expressing mKCNQ2), the “verified in a patch-clamp assay measuring the effect of compounds on the current of KCNQ channels” value is “verified”.
